Measured values as given in patent US20120302516A1, “NANOPARTICLES FOR DRUG DELIVERY” (UNIVERSITY OF LOUISVILLE RESEARCH FOUNDATION, INC., priority 2009, published 2012).
Structures can show the parent of a compound that is named as a salt.

Legend:
MCF-7 cells = assay: AEM field-induced drug release in MCF-7 cells; dead (floating) cells counted by hemocytometer after 48 h; format: cell-based, Human; conditions: AEM field exposure No, no Fe3O4, 0.3 mg Dox
Experimental: Breast cancer MCF-7 cells were treated with the resultant Dox-NP formulations, and the treated cells then were either allowed to incubate or briefly exposed to an AEM field to induce drug release from the Dox-NP formulations.
AEM field study. Results of MCF-7 cells treated with nanoparticle-doxorubicin formulations followed by alternating electromagnetic (AEM) field exposure (15 mins, 350 A, 203 KHz) were obtained. Cells plated in 30 mm dishes were treated with NP formulations at a 0.5 mg Fe3O4 dose unless otherwise specified. Doxorubicin loadings per mg NP formulation were as follows: dNP.AO.Dox (0.64 mg Dox/mg), sNP.AO.Dox (0.43 mg Dox/mg), NP.Dox (0.05 mg Dox/mg). […]
Cell culture toxicity study. Human breast cancer cells (MCF-7) were purchased from American Type Culture Collection (VA, USA). Cells were plated in 30 mm dishes at ˜4˜10^5 cells/dish, and then grown up to 50-60% confluency in DMEM, 1% Pennstrep (Mediatech, Inc, VA) and 10% FBS (Valley Biomedical, Winchester, Va.).
Alternating electromagnetic field-induced drug release in MCF-7 cells. […]
Each measured amount of NP formulation was diluted to 2 mL by adding DMEM containing 10% FBS. […]

[1] = AEM field-mediated release of FITC conjugates from NP.(AO).FITC particles, supernatant fluorescence (HPLC); format: physicochemical; conditions: water, AEM field 201.4 A, 203 kHz, 30 minutes, after washes
Text: The fluorophore FITC-CHO was attached to iron oxide nanoparticles by reaction with NP-bound aminooxy compounds (previously described compounds 6.1, 7.1 and the diol analog of 7.1) to show the influence of resident hydroxyl functionality on the binding and release properties of derived iron oxide formulations. Scheme E below depicts the fluorophore aldehyde and the three oxime ether conjugates selected for this study. Using the stepwise synthesis method, FITC-CHO was mixed with NP-AO particles derived from the three aminooxy compounds to give the NP.(AO).FITC fluorophore formulations. […] The relative binding and release properties were measured by fluorescence spectroscopy on the supernatant solutions after magnetic separation of the nanoparticles and/or NP.(AO).FITC particles.
Integration of the supernatant fluorescence after NP washing and after AEM field irradiation is indicative of the binding to the nanoparticles and the release of FITC into the supernatant. […]
To a suspension of the NP.AO (3 mg) in methanol at room temperature was added a solution of FITC-CHO in methanol (0.01M, 50 μL/mg of NP.AO). […] The particles then were magnetically separated, the supernatant was removed and analyzed. The particles were washed twice with methanol (3× reaction volume) and the supernatants collected each time and analyzed. […]

| Compound | MCF-7 cell death, extent (major/minor) (MCF-7 cells; continuation line of the cell death cell) | MCF-7 cell death (MCF-7 cells; relative to 'cells only' control, 48 h) | release into supernatant (fluorescence) after AEM field exposure [1] |
| --- | --- | --- | --- |
| COc1cccc2c1C(=O)c1c(O)c3c(c(O)c1C2=O)C[C@@](O)(C(=O)CO)C[C@@H]3O[C@H]1C[C@H](N)[C@H](O)[C@H](C)O1 [Dox, doxorubicin.HCl] | (major) | Yes | – |
| O=CCCCNC(=S)Nc1ccc(-c2c3ccc(=O)cc-3oc3cc(O)ccc23)c(C(=O)O)c1 [FITC-CHO] | – | – | no recovery of fluorescence after exposure to an AEM field |
| C[N+](CCO)(CCO)CCO/N=C/CCCNC(=S)Nc1ccc(-c2c3ccc(=O)cc-3oc3cc(O)ccc23)c(C(=O)O)c1 [FITC-III] | – | – | considerable FITC-conjugate is released into solution |
